Measurements as given in patent US7041701B2, “Triterpenoid derivatives” (Univerzita Palackeho V Olomouci, priority 2000, dated 2006).
Where two headings read alike, the source gives them in different places.

Tests used:
[1] = system: SW620 human colon cancer, metastasis; assay: MTT cytotoxicity assay, SW620; assay type: cell-based; conditions: 72 hours, read-out: TCS50
From the text: (§1) One of the parameters used as the basis for colorimetric assays is the metabolic activity of viable cells. For example, a microtiter assay which uses the tetrazolium salt MTT is now widely used to quantitate cell proliferation and cytotoxicity [Hajdúch M, Mihál V, Minarík J, Fáber E, Safárová M, Weigl E, Antálek P.: Cytotechnology, 1996, 19, 243–245]. For instance, this assay is used in drug screening programs and in chemosensitivity testing. Because tetrazolium salts are cleaved only by metabolically active cells, these assays exclusively detect viable cells. In the case of the MTT assay, yellow soluble tetrazolium salt is reduced to a coloured water-insoluble formazan salt. After it is solubilized, the formazan formed can easily and rapidly be quantified in a conventional ELISA plate reader at 570 nm (maximum absorbancy). The quantity of reduced formazan corresponds to the number of vital cells in the culture. […]
(§2) The cell suspensions that were prepared and diluted according to the particular cell type and the expected target cell density (2,500–30,000 cells per well based on cell growth characteristics) were added by pipette (80 μl) into 96/well microtiter plates. […] Usually, test compounds were evaluated at six 4-fold dilutions. […] The tumour cell survival (TCS) was calculated using the following equitation: TCS=(ODdrug exposed well/mean ODcontrol wells)×100%. […]

U87MG human glioblastoma = assay: MTT cytotoxicity assay, U87MG; assay type: cell-based; conditions: 72 hours, read-out: TCS50
From the text: as §1, §2

[2] = system: MCF-7 human breast cancer, estrogen dependent, p53+/+, Rb+/+; assay: MTT cytotoxicity assay, MCF-7; assay type: cell-based; conditions: 72 hours, read-out: TCS50
From the text: as §1, §2

[3] = system: Saos2 human, p53−/−, Rb−/−; assay: MTT cytotoxicity assay, Saos2; assay type: cell-based; conditions: 72 hours, read-out: TCS50
From the text: as §1, §2

[4] = system: BT549 human breast cancer, p53mut/mut; assay: MTT cytotoxicity assay, BT549; assay type: cell-based; conditions: 72 hours, read-out: TCS50
From the text: as §1, §2

[5] = system: MDA-MB-238 human breast cancer, estrogen independent, p53mut/mut; assay: MTT cytotoxicity assay, MDA-MB-238; assay type: cell-based; conditions: 72 hours, read-out: TCS50
From the text: as §1, §2

HT-29 human colon cancer = assay: MTT cytotoxicity assay, HT-29; assay type: cell-based; conditions: 72 hours, read-out: TCS50
From the text: as §1, §2

[6] = system: Caco-2 human colon cancer; assay: MTT cytotoxicity assay, Caco-2; assay type: cell-based; conditions: 72 hours, read-out: TCS50
From the text: as §1, §2

[7] = system: NIH3T3 mouse immortalised fibroblasts; assay: MTT cytotoxicity assay, NIH3T3; assay type: cell-based; conditions: 72 hours, read-out: TCS50
From the text: as §1, §2

[8] = system: K562-ARA-C human promyelocytic leukemia, cytarabin resistant; assay: MTT cytotoxicity assay, K562-ARA-C; assay type: cell-based; conditions: 72 hours, read-out: TCS50
From the text: as §1, §2

[9] = system: K562-FLUD human promyelocytic leukemia, fludarabin resistant; assay: MTT cytotoxicity assay, K562-FLUD; assay type: cell-based; conditions: 72 hours, read-out: TCS50
From the text: as §1, §2

[10] = system: CEM human T-lymphoblastic leukemia; assay: MTT cytotoxicity screening assay, CEM; assay type: cell-based
From the text: One of the parameters used as the basis for colorimetric assays is the metabolic activity of viable cells. For example, a microtiter assay which uses the tetrazolium salt MTT is now widely used to quantitate cell proliferation and cytotoxicity [Hajdúch M, Mihál V, Minarík J, Fáber E, Safárová M, Weigl E, Antálek P.: Cytotechnology, 1996, 19, 243–245]. For instance, this assay is used in drug screening programs and in chemosensitivity testing. Because tetrazolium salts are cleaved only by metabolically active cells, these assays exclusively detect viable cells. In the case of the MTT assay, yellow soluble tetrazolium salt is reduced to a coloured water-insoluble formazan salt. After it is solubilized, the formazan formed can easily and rapidly be quantified in a conventional ELISA plate reader at 570 nm (maximum absorbancy). The quantity of reduced formazan corresponds to the number of vital cells in the culture.
Human T-lymphoblastic leukaemia cell line CEM was used for routine screening of these compounds. […] The cells were maintained in Nunc/Corning 80 cm^2 plastic tissue culture flasks and cultured in cell culture medium (DMEM with 5 g/l glucose, 2 mM glutamine, 100 U/ml penicillin, 100 μg/ml streptomycin, 10% foetal calf serum and sodium bicarbonate). Individual compounds were dissolved in 10% diiethylsulfoxide/saline, pH 8.0.
The cell suspensions that were prepared and diluted according to the particular cell type and the expected target cell density (2,500–30,000 cells per well based on cell growth characteristics) were added by pipette (80 μl) into 96/well microtiter plates. Inoculates were allowed a pre-incubation period of 24 hours at 37° C. and 5% CO2 for stabilisation. Four-fold dilutions of the intended test concentration were added at time zero in 20 μl aliquots to the microtiter plate wells. Usually, test compounds were evaluated at six 4-fold dilutions. In routine testing, the highest well concentration was 250 μM, but it may differ, depending on the agent. All drug concentrations were examined in duplicate. Incubations of cells with the test compounds lasted for 72 hours at 37° C., in 5% CO2 atmosphere and 100% humidity. At the end of the incubation period, the cells were assayed by using the MTT assay. […] After this incubation period, formazan was solubilized by the addition of 100 μl/well of 10% SDS in water (pH=5.5) followed by further incubation at 37° C. overnight The optical density (OD) was measured at 540 nm with the Labsystem iEMS Reader MF(UK). The tumour cell survival (TCS) was calculated using the following equitation: TCS=(ODdrug exposed well/mean ODcontrol wells)×100%. The TCS50 value, the drug concentration lethal to 50% of the tumour cells, was calculated from the obtained dose response curves. […]

[11] = system: CEM-VCR 1/F3 human T-lymphoblastic leukemia, vincristin resistant; assay: MTT cytotoxicity assay, CEM-VCR 1/F3; assay type: cell-based; conditions: 72 hours, read-out: TCS50
From the text: as §1, §2

[12] = system: CEM-VCR bulk human T-lymphoblastic leukemia, vincristin resistant; assay: MTT cytotoxicity assay, CEM-VCR bulk; assay type: cell-based; conditions: 72 hours, read-out: TCS50
From the text: as §1, §2

CEM cells = assay: Flow cytometry of total DNA content (cell cycle, apoptosis) in CEM cells; assay type: cell-based, human
Method: Hypophosphorylation of Rb protein is accompanied with cell cycle block on the G1/S transition. To investigate whether incubation of tumour cells with betulinines will result in cell cycle block and/or apoptosis, a flow-cytometry study was performed with measurement of total DNA content in CEM cells treated with/without I.3. Taxol (paclitaxel) was used as a positive control, since this drug is known to result in the cumulation of cells in the G2 phase.
Briefly, CEM cells were cultured in Dulbeco's modified essential medium with 4.5 g dextrose/l, 10% of foetal calf serum, 2 mM glutamine, 100 U/ml penicillin and 100 μg/ml streptomycin with/without the indicated concentrations of paclitaxel or I.3 (FIG. 4A). At selected time points, cells were harvested, washed in ice cold Hank's balanced salt solution (HBSS) and fixed in 70% ethanol at −20° C. overnight. The next day, ethanol was removed by centrifugation, cells were washed twice in HBSS and a cellular pellet (10^6 cells) was reconstituted in staining solution (propidium iodide 60 μg/ml, DNA-se free RNA-se 175 U/ml in HBSS) for 15 minutes at 37° C. The DNA content of individual cells was analyzed on flow cytometer Excalibur (Becton and Dickinson) at excitation wavelength of 488 nm.

**Q.** Which IC50 [1] does the source give for CC(=O)OC[C@@]1(C(=O)O)CC[C@]2(C)[C@H](CC[C@@H]3[C@@]4(C)CC[C@H](OC(C)=O)C(C)(C)[C@@H]4CC[C@]32C)C1=O [I.3, 3β,28-diacetoxy-18-oxo-19,20,21,29,30-pentanorlupan-22-oic acid] here?
**A.** 1.2 µM

**Q.** And the IC50 (U87MG human glioblastoma)?
**A.** 5.1 µM

**Q.** What about the IC50 [2] of the same compound?
**A.** 2.3 µM

**Q.** What about the IC50 [3] of the same compound?
**A.** 1.8 µM

**Q.** What about the IC50 [4] of the same compound?
**A.** 2 µM

**Q.** And the IC50 [5]?
**A.** 1.4 µM

**Q.** What about the IC50 (HT-29 human colon cancer) of the same compound?
**A.** 1.6 µM

**Q.** What about the IC50 [6] of the same compound?
**A.** 3 µM

**Q.** What about the IC50 [7] of the same compound?
**A.** 7.2 µM

**Q.** And the IC50 [8]?
**A.** 0.6 µM

**Q.** What about the IC50 [9] of the same compound?
**A.** 0.4 µM

**Q.** What about the IC50 ([10]; CEM cells, as stated in the histone acetylation study, read-out: IC50) of the same compound?
**A.** 2 µM

**Q.** And the IC50 ([10]; CEM, MTT assay, 72 hours, read-out: TCS50)?
**A.** 1 µM

**Q.** And the IC50 [11]?
**A.** 3.3 µM

**Q.** What about the IC50 [12] of the same compound?
**A.** 2.5 µM

**Q.** What about the cell cycle distribution (CEM cells; propidium iodide flow cytometry (FIG. 4A)) of the same compound?
**A.** induces cumulation of cells in G0/G1 phases

**Q.** What about the “induction of apoptosis (sub-G1 cells)” value (CEM cells; propidium iodide flow cytometry (FIG. 4B)) of the same compound?
**A.** rapid apoptosis
